Measured values from patent US5173405A, “Use of arsenite to reversibly block steroid binding to glucocorticoid receptors in the presence of other steroid receptors” (priority 1990, dated 1992).

Key:
[1] = tested on: steroid-free glucocorticoid receptors; experiment: Reversal by thiols of arsenite inhibition of [3H]Dex binding to steroid-free receptors; details: receptors preincubated with 40 uM arsenite 30 min, then thiol 30 min
Experimental: Referring to FIG. 4, steroid-free receptors in pH 8.8 TAPS buffer containing 21 mM Na2 MoO4 were preincubated with 40 uM arsenite for 30 min and then adjusted to various concentrations of DTT or β-MERC by addition of 100× solutions of each thiol in pH 8.8 TAPS buffer. After a further 30 min preincubation, the binding activity of these receptors was assayed by incubating with [^3 H]Dex±excess [^1 H]Dex for 2.5 hr. The amount of specific binding (determined as described above for FIG. 1A) of [^3 H]Dex after DTT(o) and β-MERC preincubation was expressed as a percent of the untreated control.
(§1) The growth of HTC cells at 37° C. in spinner and monolayer cultures of Swim's S77 medium (GIBCO; Grand Island, N.Y.) supplemented with 5% fetal and 5% newborn bovine serum (both obtained from Biofluids; Rockville, Md.) and 0.03% glutamine are described in Thompson, 1979. HTC cell cytosol containing the steroid-free receptors was prepared, stored in liquid N2, and labelled as set forth in Reichman et al., Biochem., 23, 5376-5384, 1984; Simons et al., Biochem., 23, 6876-6882, 1984. […] The specifically bound [^3 H]Dex was determined by first adding a 10% dextran-coated charcoal solution (added volume=20% of reaction solution volume) to remove free steroid and then subtracting the nonspecific binding seen in the presence of excess [^1 H]Dex.

[2] = tested on: 16 kDa steroid-binding core fragment of HTC cell receptors; experiment: [3H]Dex binding to trypsin-generated 16 kDa core fragment after preincubation with arsenite or MMTS; parameters: species or system rat; details: preincubation with arsenite 30 min or MMTS 2.5 hr
Experimental: Referring to FIG. 6, duplicate samples of steroid-free receptors in pH 8.8 TAPS buffer containing 21 mM Na2 MoO4 were digested with trypsin (14 μg/ml for 1 hr), to generate the 16 kDa core fragment of the receptor, followed by a 10-fold (wt/wt) excess of soybean trypsin inhibitor to block further digestion. The samples were then treated with various concentrations of arsenite (for 30 min) or MMTS (for 2.5 hr) before determining the remaining [^3 H]Dex binding as described above for FIG. 1A.
as §1

[3] = target: T1, glucocorticoid receptors (HTC cell receptors) (Rattus norvegicus, UniProt P06536); experiment: [3H]Dex binding to HTC cell cytosol receptors after preincubation with MMTS or arsenite; details: for inactivation of steroid-binding activity of glucocorticoid receptors: low concentrations of MMTS, very low concentrations of arsenite
T1 sequence (P06536 1-795): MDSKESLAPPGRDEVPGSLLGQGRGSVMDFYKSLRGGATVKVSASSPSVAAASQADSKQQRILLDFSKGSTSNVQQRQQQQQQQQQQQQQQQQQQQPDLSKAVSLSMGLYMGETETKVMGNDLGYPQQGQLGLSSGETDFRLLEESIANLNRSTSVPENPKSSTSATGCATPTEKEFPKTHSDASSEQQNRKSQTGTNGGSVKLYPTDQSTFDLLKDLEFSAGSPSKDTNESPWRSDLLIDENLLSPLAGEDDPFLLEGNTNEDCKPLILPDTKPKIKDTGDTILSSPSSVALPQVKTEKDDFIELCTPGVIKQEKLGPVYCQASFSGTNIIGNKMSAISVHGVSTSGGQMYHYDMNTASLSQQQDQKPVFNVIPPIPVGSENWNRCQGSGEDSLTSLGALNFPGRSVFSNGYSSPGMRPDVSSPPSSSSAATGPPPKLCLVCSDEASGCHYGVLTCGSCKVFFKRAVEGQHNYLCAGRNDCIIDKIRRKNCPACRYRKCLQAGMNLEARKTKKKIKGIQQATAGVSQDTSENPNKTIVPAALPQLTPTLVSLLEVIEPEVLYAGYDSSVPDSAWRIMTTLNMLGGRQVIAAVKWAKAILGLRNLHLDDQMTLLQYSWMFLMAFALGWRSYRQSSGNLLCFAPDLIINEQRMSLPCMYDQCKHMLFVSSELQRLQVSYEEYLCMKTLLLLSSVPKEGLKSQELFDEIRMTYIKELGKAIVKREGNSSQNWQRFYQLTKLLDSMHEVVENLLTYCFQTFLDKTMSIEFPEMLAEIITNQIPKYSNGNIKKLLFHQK
Experimental: Referring to FIG. 1A, duplicate samples of HTC cell (Thompson, E.B., Methods Enzymol., 58, 544-551 [1979]) cytosol solution were pretreated with various concentrations of MMTS in absolute EtOH (final concentration of ETOH=1%) for 0 hr (.smallcircle.), 0.5 hr, or 2.5 hr before the addition of [^3 H]Dex±[^1 H]Dex. After a further 2.5 hr incubation, the free steroid was removed by the addition of dextran-coatedcharcoal. The specific binding to receptors was determined as described by Miller and Simons, J. Biol. Chem., 263, 15217-15225, 1988) (see also section entitled "Cells and preparation and labelling of receptors" below) and plotted as percentage of the EtOH-pretreated control versus the concentration of MMTS. The data points shown are the average values derived from 1-5 experiments.
Referring to FIG. 1B, duplicate samples of HTC cell cytosol solution were treated with various concentrations of MMTS for 2.5 hr before determining the remaining steroid binding activity of the receptors as described above for FIG. 1A.
Referring to FIG. 3, steroid-free receptors containing 21 mM Na2 MoO4 were incubated with various concentrations of 100× (in pH 8.8 TAPS buffer) arsenite for 30 min. The binding activity of these receptors was then assayed by incubating with [^3 H]Dex±excess [^1 H]Dex for 2.5 hr. The amount of specific binding of [^3 H]Dex (determined as described above for FIG. 1A) after arsenite preincubation was expressed as a percent of the untreated control.
as §1, with “1979.” for “1979. HTC cell cytosol containing the steroid-free receptors was prepared, stored in liquid N2, and labelled as set forth in Reichman et al., Biochem., 23, 5376-5384, 1984; Simons et al., Biochem., 23, 6876-6882, 1984.”

[4] = tested on: human glucocorticoid receptors; experiment: [3H]steroid binding of glucocorticoid receptors in MCF-7 cell cytosol after arsenite preincubation; details: arsenite between 100 and 500 μM
Experimental: (§2) Referring to FIG. 7, steroid-free receptors (glucocorticoid, estrogen, and progesterone receptors in MCF-7 cell [from NCI, NIH] cytosol in pH 7.5 HEPES buffer containing 21 mM Na2 MoO4) were treated with various concentrations of 100× (in pH 7.5 HEPES buffer) sodium arsenite for 30 min. The binding activity of these receptors was then assayed by incubating with [^3 H]steroid±[^1 H]steroid for 2.5 hr. The amount of specific binding of [^3 H]steroid (as described above for FIG. 1A) after arsenite preincubation was expressed as the percent of the untreated control for glucocorticoid estrogen (Δ), and progesterone (.smallcircle.) receptors.
(§3) MCF-7 cells (obtained from NIH) were grown as monolayer cultures in Richter's IMEM (NIH Media Unit, NIH) (supplemented with 10% fetal bovine serum [Biofluids] and 0.03% glutamine) in an atmosphere of 5% CO2 /95% air at 37° C. Crude receptor solutions were prepared by freeze-thaw lysis (in liquid N2) of cells washed in phosphate buffered saline (Reichman et al., 1984; Simons et al., 1984). The cell lysates were treated with either […] TAPS or pH 7.5 HEPES buffer (containing 20 mM Na2 MoO4) and centrifuged at 2500×g for 10 min or 100,000×g for 60 min. […]

[5] = tested on: human estrogen and progesterone receptors (other receptors); experiment: [3H]steroid binding of estrogen and progesterone receptors in MCF-7 cell cytosol after arsenite preincubation; details: arsenite between 100 and 500 μM
Experimental: as §2, §3

| SMILES | reversal of arsenite inhibition of steroid binding [1] | inhibition of [3H]Dex binding to 16 kDa steroid-binding core fragment [2] | inactivation of steroid-binding activity of glucocorticoid receptors [3] | preferred MMTS concentration for blocking rat glucocorticoid receptors ([3]; rat glucocorticoid receptors) | inhibition of glucocorticoid binding [4] | effect on other receptors [5] |
| --- | --- | --- | --- | --- | --- | --- |
| O[C@H](CS)[C@H](O)CS (racemic) [DTT, dithiothreitol] | reversal of arsenite inhibition of steroid binding |  |  |  |  |  |
| CSS(C)(=O)=O [MMTS, methyl methanethiolsulfonate] |  | inhibition of [^3 H]Dex binding | specifically and reversibly inactivate all of the steroid-binding activity of glucocorticoid receptors | approximately 300 μM |  |  |
| O=[As]O [arsenite, sodium arsenite] |  | inhibition of [^3 H]Dex binding | specifically and reversibly inactivate all of the steroid-binding activity of glucocorticoid receptors |  | complete inhibition of glucocorticoid binding | little effect on other receptors |
| OCCS [β-MERC, β-mercaptoethanol] | reversal of arsenite inhibition of steroid binding |  |  |  |  |  |
